Values quoted from earlier work as cited in publication PMC8554823 (ACS Central Science, 2021).

Biological target: human granzyme B (Homo sapiens, UniProt P10144)
Conditions: previously reported value for IEPD alone

Sequence of human granzyme B (P10144 21-247): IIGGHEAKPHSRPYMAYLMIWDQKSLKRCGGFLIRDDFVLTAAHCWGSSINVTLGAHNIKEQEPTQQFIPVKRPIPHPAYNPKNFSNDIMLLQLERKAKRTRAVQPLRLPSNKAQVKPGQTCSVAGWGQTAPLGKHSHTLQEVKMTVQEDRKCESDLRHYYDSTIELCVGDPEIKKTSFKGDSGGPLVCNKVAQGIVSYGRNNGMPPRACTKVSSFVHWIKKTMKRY

In the case of IEPD, the “catalytic efficiency (kcat/Km)” value is given as about 3300 M^–1 s^–1.
